Experimental data: patent US6683028B1, “Cyclic guanidine derivatives and their use as pesticides” (Bayer Aktiengesellschaft, priority 1999, dated 2004)

How the values were obtained:
[1] = system: mustard beetle larvae (Phaedon cochleariae); experiment: Phaedon Larvae Test; assay type: in vivo; conditions: active compound concentration of 0.1%; after 7 days; cabbage leaves dipped
Protocol: (§1) Solvent: 7 parts by weight of dimethylformamide
(§2) Emulsifier: 1 part by weight of alkylaryl polyglycol ether
To produce a suitable preparation of active compound, 1 part by weight of active compound is mixed with the stated amount of solvent and the stated amount of emulsifier, and the concentrate is diluted with water to the desired concentration.
Cabbage leaves (Brassica oleracea) are treated by being dipped into the preparation of active compound of the desired concentration and are populated with mustard beetle larvae (Phaedon cochleariae) while the leaves are still moist.
After the desired period of time, the kill in % is determined. 100% means that all beetle larvae have been killed; 0% means that none of the beetle larvae have been killed.

[2] = system: peach aphid (Myzus persicae); experiment: Myzus Test; assay type: in vivo; conditions: active compound concentration of 0.1%; after 6 days; cabbage leaves dipped
Protocol: as §1, §2
To produce a suitable preparation of active compound, 1 part by weight of active ingredient is mixed with the stated amount of solvent and the stated amount of emulsifier, and the concentrate is diluted with water to the desired concentration.
Cabbage leaves (Brassica oleracea) which are heavily infested by the peach aphid (Myzus persicae) are treated by being dipped into the preparation of active compound of the desired concentration.
After the desired period of time, the kill in % is determined. 100% means that all aphids have been killed; 0% means that none of the aphids have been killed.

[3] = logP determination by HPLC (EEC directive 79/831 Annex V. A8); assay type: physicochemical; conditions: pH = 2; HPLC gradient method, acetonitrile/0.1% aqueous phosphoric acid
Protocol: [logP=the logP values were determined in accordance with EEC directive 79/831 Annex V. A8 by HPLC (gradient method, acetonitrile/0.1% aqueous phosphoric acid)]

For `CCCOCN1COCN(Cc2cnc(Cl)s2)C1=N[N+](=O)[O-]` [Example 1, 3-(2-chloro-thiazol-5-yl-methyl)-4-nitroimino-5-n-propoxymethyl-perhydro-1,3,5-oxadiazine], the kill [1] was 100%, the kill [2] was 100% and the chromatographic logP [3] was 1.7.
